Test [1] concerns the target T1, M1 -type muscarinic cholinergic receptor (Rattus norvegicus, UniProt P08482).
T1 sequence (P08482 1-460): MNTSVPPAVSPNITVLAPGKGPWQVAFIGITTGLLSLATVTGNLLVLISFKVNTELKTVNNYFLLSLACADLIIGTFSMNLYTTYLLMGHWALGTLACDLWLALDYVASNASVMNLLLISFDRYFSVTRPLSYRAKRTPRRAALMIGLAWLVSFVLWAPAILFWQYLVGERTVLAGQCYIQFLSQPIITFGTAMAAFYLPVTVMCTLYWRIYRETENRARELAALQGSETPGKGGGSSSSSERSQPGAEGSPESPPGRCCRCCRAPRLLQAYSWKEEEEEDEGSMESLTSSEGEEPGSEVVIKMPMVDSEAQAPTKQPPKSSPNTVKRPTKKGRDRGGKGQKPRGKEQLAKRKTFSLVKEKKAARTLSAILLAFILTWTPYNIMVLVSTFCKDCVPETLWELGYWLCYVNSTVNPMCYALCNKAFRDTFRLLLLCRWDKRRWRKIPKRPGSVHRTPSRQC
As to the kind of experiment: biochemical. In kind it is binding. To be noted: for IC50: rat hippocampus homogenate, 3H-PZ 1 nM, 2 hours at 4° C., pH 7.40, read-out: IC50 3H-PZ (M1); for ratio R of the IC50 values for the M1 and M2 receptors: selectivity, values correspond to IC50 M2 / IC50 M1.
Description: The interaction of the molecules with the M1 -type muscarinic receptors was studied by in vitro measurement, on a rat hippocampus homogenate, of the displacement of tritiated pirenzepine from its specific binding sites. Aliquots (10 μl) of a 5% (w/v) rat hippocampus homogenate in an Na2 HPO4 buffer (50 mM, pH 7.40) are incubated for 2 hours at 4° C. in the presence of ^3 H-PZ (76 Ci/mmol; final concentration 1 nM) and increasing concentrations of the test product. The final volume is 2 ml. The reaction is stopped by centrifugation for 10 minutes at 50,000×g. After decantation and washing of the residues, the bound radioactivity is counted by liquid scintillation. The non-specific binding is determined in the presence of 10 μM atropine sulfate.

The target of test [2] is T2, M2 -type muscarinic cholinergic receptor (Cavia porcellus, UniProt H0VRN8).
T2 construct: on a smooth guinea-pig ileum muscle homogenate; from tissue; host or cells: guinea-pig ileum smooth muscle homogenate
T2 sequence (H0VRN8 1-466): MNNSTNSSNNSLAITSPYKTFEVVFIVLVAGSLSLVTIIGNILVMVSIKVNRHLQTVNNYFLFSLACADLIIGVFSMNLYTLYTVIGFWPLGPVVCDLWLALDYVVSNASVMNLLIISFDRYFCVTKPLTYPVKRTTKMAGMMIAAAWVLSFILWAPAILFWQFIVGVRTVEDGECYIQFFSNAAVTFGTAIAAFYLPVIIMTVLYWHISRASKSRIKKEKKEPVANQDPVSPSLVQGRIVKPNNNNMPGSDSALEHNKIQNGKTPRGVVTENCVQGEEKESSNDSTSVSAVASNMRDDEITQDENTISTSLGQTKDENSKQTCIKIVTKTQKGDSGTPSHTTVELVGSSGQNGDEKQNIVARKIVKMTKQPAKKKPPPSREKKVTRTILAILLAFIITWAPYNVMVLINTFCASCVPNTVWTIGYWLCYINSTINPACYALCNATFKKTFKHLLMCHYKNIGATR
Put plainly: Affinity for the M2-type muscarinic cholinergic receptor, displacement of tritiated N-methylscopolamine (3H-NMS) on smooth guinea-pig ileum muscle homogenate. It counts as binding. Particulars: guinea-pig ileum smooth muscle homogenate, 3H-NMS 0.3 nM, 20 minutes at 30° C., pH 7.5; read-out: IC50 3H-NMS (M2). How it is done:
The M1 -type receptors are concentrated in certain regions of the brain, such as the hippocampus, the cerebral cortex and the striatum, and also in the sympathetic ganglia. These binding sites can be selectively labeled with tritiated pirenzepine (^3 H-PZ). The M2 -type receptors predominate in the heart and the ileum and can be labeled with tritiated N-methyl-scopolamine (^3 H-NMS). The selectivity of the products of the invention with respect to the M1 and M2 sites was determined by studying their in vitro interaction with ^3 H-PZ and ^3 H-NMS firmly bound with a high affinity to rat hippocampus membranes and smooth guinea-pig ileum muscle, respectively.
The interaction with the M2 -type muscarinic receptors was studied by in vitro measurement, on a smooth guinea-pig ileum muscle homogenate, of the displacement of tritiated N-methylscopolamine from its specific binding sites. […] The final volume is 1 ml. The reaction is stopped by centrifugation for 5 minutes at 15,000×g. The non-specific binding is determined in the presence of 10 mM atropine sulfate.
The IC50 for ^3 H-PZ displacement represents the affinity for the M1 receptor; the IC50 for ^3 H-NMS displacement represents the affinity for the M2 receptor.

Here are results for 35 molecules from patent publication US5378706A, “Fused-thiazole derivatives active on the cholinergic system, and pharmaceutical compositions containing same” (Sanofi, priority 1987, dated 1995).

Where only a bound is given, the exact number is not on record here.

As for `c1ccc(-c2nc(NCCc3ccccn3)sc2-c2ccccc2)cc1` [SR 44906 A], in test [1], the IC50 worked out at 2.4 µM; the “ratio R of the IC50 values for the M1 and M2 receptors” value (from here on “ratio R of the IC50 values”) is listed as over 42. In test [2], the IC50 was over 100 µM.

As for `Fc1ccc(-c2csc(NCc3ccncc3)n2)cc1` [SR 44840 A], the values for the IC50 in test [1] and in test [2] were 0.6 µM and over 100 µM, respectively. The “ratio R of the IC50 values” value in test [1] was over 167.

As for `Cc1cc(C)c(-c2csc(NCc3ccccn3)n2)c(C)c1` [SR 44813 A], in test [1], the IC50 is 6 µM; the “ratio R of the IC50 values” value is listed as over 17. In test [2], the IC50 was over 100 µM.

Regarding `CN1CCCC1CCNc1nc(-c2ccc(F)cc2)cs1` (stereo not drawn) [SR 44786 A], in test [1], the IC50 is 0.6 µM; the “ratio R of the IC50 values” value is recorded as 67. In addition, the IC50 in test [2] is 40 µM.

For the molecule `CCc1nc(NCCCN(CC)CC)sc1-c1ccccc1` [SR 44963 A], in test [1], the IC50 worked out at 0.12 µM; the “ratio R of the IC50 values” value turned out to be 50. Besides, the IC50 in test [2] worked out at 6 µM.

As to `Cc1cc(C)c(-c2csc(NCCc3ccccn3)n2)c(C)c1` [SR 44905 A], in test [1], the IC50 is 2.4 µM; the “ratio R of the IC50 values” value came out at 25. Moreover, in test [2], the IC50 stood at 60 µM.

For the molecule `CC(C)N(CCNc1ncc(-c2ccccc2)s1)C(C)C` [SR 44491 A], in test [1], the IC50 stood at 0.8 µM; the “ratio R of the IC50 values” value came to 10. Moreover, in test [2], the IC50 was found to be 8.5 µM.

Regarding `Cc1nc(NCCN2CCCC2)sc1-c1ccccc1` [SR 44488 A], in test [1], the IC50 stood at 1.7 µM; the “ratio R of the IC50 values” value is 20. Moreover, the IC50 in test [2] came out at 34 µM.

On to `c1ccc2cc(-c3csc(NCCN4CCCCC4)n3)ccc2c1` [SR 44516 A], for which, in test [1], the IC50 was determined as 3.4 µM; the “ratio R of the IC50 values” value is listed as 22. In addition, the IC50 in test [2] was 75 µM.

With `CCN(CC)CCNc1nc(C)cs1` [SR 44422 A], in test [1], the IC50 is 8.1 µM; the “ratio R of the IC50 values” value is reported as 12. For the same molecule, in test [2], the IC50 was found to be 100 µM.

As to `CCN(CC)CCNc1nc(-c2ccccc2)c(-c2ccccc2)s1` [SR 44437 A], the values for the IC50 in test [1] and in test [2] were 0.43 µM and 3 µM, respectively. The “ratio R of the IC50 values” value in test [1] stood at 7.

Take `CCN(CC)CCCNc1nc(Cc2ccccc2)c(-c2ccccc2)s1` [SR 44515 A]: in test [1], the IC50 stood at 0.2 µM; the “ratio R of the IC50 values” value is recorded as 17. Further, the IC50 in test [2] is 3.4 µM.

On to `c1ccc(-c2nc(NCc3cccnc3)sc2-c2ccccc2)cc1` [SR 44904 A], for which, in test [1], the IC50 was 6 µM; the “ratio R of the IC50 values” value is on record as over 17. Further, in test [2], the IC50 was over 100 µM.

As to `CN(C)CCCNc1nc(C2CCCCC2)cs1` [SR 44574 A], in test [1], the IC50 was 0.2 µM; the “ratio R of the IC50 values” value came out at 120. For the same molecule, in test [2], the IC50 amounted to 24 µM.

With `Cc1cc(C)c(-c2csc(NCCN(C(C)C)C(C)C)n2)c(C)c1` [SR 44908 A], in test [1], the IC50 was 0.13 µM; the “ratio R of the IC50 values” value amounted to 31. For the same molecule, in test [2], the IC50 stood at 4 µM.

Regarding `CCCCN(CCCC)CCNc1ncc(-c2ccccc2)s1` [SR 44492 A], the IC50 in test [1] amounted to 3.6 µM; in test [2], 28 µM. The “ratio R of the IC50 values” value in test [1] turned out to be 8.

For the molecule `CCCCN(CCCC)CCNc1nc(-c2ccc(F)cc2)cs1` [SR 44451 A], the IC50 in test [1] worked out at 6 µM; in test [2] it was 80 µM. Also, in test [1], the “ratio R of the IC50 values” value worked out at 13.

As to `c1ccc(-c2cnc(NCCN3CCCC3)s2)cc1` [SR 44438 A], in test [1], the IC50 was found to be 1 µM; the “ratio R of the IC50 values” value is listed as 60. Further, the IC50 in test [2] amounted to 60 µM.

Consider `c1ccc(-c2cnc(NCCc3ccncc3)s2)cc1` [SR 44966 A], for which the figures for the IC50 in test [1] and in test [2] were 4.5 µM and 100 µM, respectively. Moreover, the “ratio R of the IC50 values” value in test [1] is listed as 22.

In the case of `CCN(CC)CCNc1nc(C23CC4CC(CC(C4)C2)C3)cs1` [SR 44468 A], in test [1], the IC50 was 1.2 µM; the “ratio R of the IC50 values” value is listed as 18. For the same molecule, the IC50 in test [2] was found to be 22 µM.

Turning to `Cc1cc(C)c(-c2csc(NCc3ccncc3)n2)c(C)c1` [SR 44864 A], in test [1], the IC50 came out at 0.28 µM; the “ratio R of the IC50 values” value is over 360. For the same molecule, the IC50 in test [2] was over 100 µM.

For `c1csc(-c2csc(NCCN3CCOCC3)n2)c1` [SR 44575 A], in test [1], the IC50 was 7 µM; the “ratio R of the IC50 values” value was over 14. Also, in test [2], the IC50 is over 100 µM.

For the molecule `Cc1nc(NCCN(C(C)C)C(C)C)sc1-c1ccccc1` [SR 44489 A], in test [1], the IC50 was 0.3 µM; the “ratio R of the IC50 values” value was found to be 6. Also, the IC50 in test [2] stood at 2 µM.

For the molecule `CCN(CC)CCCNc1nc(-c2ccccc2)c(C)s1` [SR 44434 A], in test [1], the IC50 came to 1.5 µM; the “ratio R of the IC50 values” value is on record as 46. Besides, the IC50 in test [2] worked out at 70 µM.

Consider `CN(C)CCCNc1ncc(-c2ccccc2)s1` [SR 44967 A], for which, in test [1], the IC50 was determined as 1.8 µM; the “ratio R of the IC50 values” value is reported as 22. Moreover, the IC50 in test [2] came out at 40 µM.

As to `COc1ccccc1-c1csc(NCCCN(C)C)n1` [SR 44465 A], in test [1], the IC50 was found to be 2.6 µM; the “ratio R of the IC50 values” value was 15. Moreover, the IC50 in test [2] was found to be 40 µM.

As for `CC(C)N(CCCNc1nc(-c2ccc(F)cc2F)cs1)C(C)C` [SR 44916 A], in test [1], the IC50 is 0.13 µM; the “ratio R of the IC50 values” value was determined as 38. In test [2], the IC50 was found to be 5 µM.

As for `CC(C)(c1ccccc1)c1csc(NCc2cccnc2)n1` [SR 45106 A], in test [1], the IC50 is 3 µM; the “ratio R of the IC50 values” value is listed as over 33. Also, in test [2], the IC50 was over 100 µM.

`CCN(CC)CCNc1nc(-c2ccc([N+](=O)[O-])cc2)cs1` [SR 44469 A]: the results for the IC50 in test [1] and in test [2] were 2.6 µM and 60 µM, respectively. For the same molecule, in test [1], the “ratio R of the IC50 values” value was 23.

Regarding `CCN(CC)CCNc1nc(C)c(-c2ccccc2)s1` [SR 44436 A], the IC50 worked out at 1.7 µM in test [1] and 50 µM in test [2]. The “ratio R of the IC50 values” value in test [1] is 29.

Consider `CN(C)CCCNc1nc(-c2cccc([N+](=O)[O-])c2)cs1` [SR 44791 A], for which, in test [1], the IC50 is 5 µM; the “ratio R of the IC50 values” value stood at 8. For the same molecule, the IC50 in test [2] is 40 µM.

Consider `NCCCNc1nc(-c2ccc(F)cc2)cs1` [SR 44886 A, 2-[(3-Aminopropyl)amino]-4-(4-fluorophenyl)thiazole], for which the IC50 in test [1] stood at 6.3 µM; in test [2] it was 70 µM. Further, the “ratio R of the IC50 values” value in test [1] was 11.

For the molecule `c1ccc(-c2cnc(NCCN3CCCCC3)s2)cc1` [SR 44490 A], the figures for the IC50 in test [1] and in test [2] were 1.5 µM and 25 µM, respectively. Moreover, the “ratio R of the IC50 values” value in test [1] is on record as 16.

As for `Cc1sc(NCCCN(C)C)nc1-c1ccccc1` [SR 44769 A], in test [1], the IC50 came out at 2 µM; the “ratio R of the IC50 values” value came to 15. The IC50 in test [2] is 30 µM.

Regarding `Cc1ccc(-c2csc(NCCCN(C)C)n2)cc1` [SR 44832 A], in test [1], the IC50 came to 2.4 µM; the “ratio R of the IC50 values” value is over 42. The IC50 in test [2] is over 100 µM.

For orientation: IC50 means the concentration at which inhibition is half-maximal.
